# Test results: paper PMC6839502 (Journal of Alzheimer's Disease, 2019)
# Assay: Safety and tolerability
# Format: in vivo, human
# [1] = 5 mg QD 14 days, healthy adults, 8 evaluable
# [2] = 15 mg QD 14 days, healthy adults, 8 evaluable
# [3] = 50 mg QD 14 days, healthy adults, 8 evaluable
# [4] = 50 mg QD 14 days, healthy older subjects, 10 evaluable
# [5] = 125 mg QD 14 days, healthy adults, 12 evaluable
# [6] = 125 mg QD 14 days, healthy older subjects, 8 evaluable
# [7] = 275 mg QD 14 days, healthy adults, 9 evaluable
# [8] = single 3 mg, healthy adults, 5 evaluable
# [9] = single 12 mg, healthy adults, 6 evaluable
# [10] = single 40 mg, healthy adults, 6 evaluable
# [11] = single 160 mg, healthy adults, 6 evaluable
# [12] = single 200 mg fed, healthy adults, 6 evaluable
# [13] = single 200 mg, healthy adults, 6 evaluable
# [14] = single 400 mg, healthy adults, 6 evaluable
# [15] = single 540 mg, healthy adults, 6 evaluable
# [16] = studies B8271001 and B8271004 overall
smiles,measurement,setting,value
C[C@H]1C[C@H]2CSC(N)=N[C@@]2(c2nc(NC(=O)c3ccc(OC(F)F)cn3)cs2)CO1 [PF-06751979],"Back pain, all-causality",[1],0
same,"Fatigue (MedDRA preferred term), all-causality",[1],0
same,"Headache (MedDRA preferred term), all-causality",[1],0
same,"Hepatic enzyme increased, all-causality",[1],0
same,"Insomnia, all-causality",[1],0
same,"Musculoskeletal discomfort, all-causality",[1],0
same,"Number of AEs, all-causality treatment-emergent",[1],1 (1)
same,"Number of AEs, treatment related",[1],1 (1)
same,"Number of subjects with AEs, all-causality",[1],1 (1)
same,"Number of subjects with AEs, treatment related",[1],1 (1)
same,Number of subjects with SAEs,[1],0
same,Number of subjects with discontinuation due to AEs,[1],0
same,Number of subjects with severe AEs,[1],0
same,Number of subjects with temporary discontinuation or dose reduction due to AEs,[1],0
same,"Paresthesia, all-causality",[1],0
same,"Procedural pain, all-causality",[1],0
same,"Back pain, all-causality",[2],0
same,"Fatigue (MedDRA preferred term), all-causality",[2],0
same,"Headache (MedDRA preferred term), all-causality",[2],1 (1)
same,"Headache, treatment related",[2],1 (1)
same,"Hepatic enzyme increased, all-causality",[2],1 (1)
same,"Hepatic enzyme increased, treatment related",[2],1 (1)
same,"Insomnia, all-causality",[2],0
same,"Musculoskeletal discomfort, all-causality",[2],0
same,"Number of AEs, all-causality treatment-emergent",[2],2 (2)
same,"Number of AEs, treatment related",[2],2 (2)
same,"Number of subjects with AEs, all-causality",[2],2 (2)
same,"Number of subjects with AEs, treatment related",[2],2 (2)
same,Number of subjects with SAEs,[2],0
same,Number of subjects with discontinuation due to AEs,[2],0
same,Number of subjects with severe AEs,[2],0
same,Number of subjects with temporary discontinuation or dose reduction due to AEs,[2],0
same,"Paresthesia, all-causality",[2],0
same,"Procedural pain, all-causality",[2],0
same,"ALT peak, one subject","15 mg QD, Day 21",7.7 ×ULN
same,"AST peak, one subject","15 mg QD, Day 21",5.6 ×ULN
same,"Back pain, all-causality",[3],0
same,"Fatigue (MedDRA preferred term), all-causality",[3],0
same,"Headache (MedDRA preferred term), all-causality",[3],0
same,"Hepatic enzyme increased, all-causality",[3],0
same,"Insomnia, all-causality",[3],0
same,"Musculoskeletal discomfort, all-causality",[3],0
same,"Number of AEs, all-causality treatment-emergent",[3],1 (1)
same,"Number of AEs, treatment related",[3],1 (1)
same,"Number of subjects with AEs, all-causality",[3],1 (1)
same,"Number of subjects with AEs, treatment related",[3],1 (1)
same,Number of subjects with SAEs,[3],0
same,Number of subjects with discontinuation due to AEs,[3],0
same,Number of subjects with severe AEs,[3],0
same,Number of subjects with temporary discontinuation or dose reduction due to AEs,[3],0
same,"Paresthesia, all-causality",[3],0
same,"Procedural pain, all-causality",[3],0
same,"Abnormal dreams, all-causality",[4],2 (2)
same,"Abnormal dreams, treatment related",[4],2 (2)
same,"Dizziness, all-causality",[4],1
same,"Dizziness, treatment related",[4],0
same,"Fatigue (MedDRA preferred term), all-causality",[4],1 (1)
same,"Fatigue, treatment related",[4],1 (1)
same,"Headache (MedDRA preferred term), all-causality",[4],1
same,"Headache, treatment related",[4],0
same,"Number of AEs, all-causality treatment-emergent",[4],15
same,"Number of AEs, treatment related",[4],9
same,"Number of subjects with AEs, all-causality",[4],7
same,"Number of subjects with AEs, treatment related",[4],6
same,Number of subjects with SAEs,[4],0
same,Number of subjects with discontinuation due to AEs,[4],0
same,Number of subjects with severe AEs,[4],0
same,Number of subjects with temporary discontinuation or dose reduction due to AEs,[4],0
same,"Back pain, all-causality",[5],2
same,"Back pain, treatment related",[5],0
same,"Fatigue (MedDRA preferred term), all-causality",[5],2 (2)
same,"Fatigue, treatment related",[5],2 (2)
same,"Headache (MedDRA preferred term), all-causality",[5],3
same,"Headache, treatment related",[5],1
same,"Hepatic enzyme increased, all-causality",[5],1
same,"Hepatic enzyme increased, treatment related",[5],0
same,"Insomnia, all-causality",[5],1 (1)
same,"Insomnia, treatment related",[5],1 (1)
same,"Musculoskeletal discomfort, all-causality",[5],3
same,"Musculoskeletal discomfort, treatment related",[5],0
same,"Number of AEs, all-causality treatment-emergent",[5],22
same,"Number of AEs, treatment related",[5],6
same,"Number of subjects with AEs, all-causality",[5],10
same,"Number of subjects with AEs, treatment related",[5],4
same,Number of subjects with SAEs,[5],0
same,Number of subjects with discontinuation due to AEs,[5],0
same,Number of subjects with severe AEs,[5],0
same,Number of subjects with temporary discontinuation or dose reduction due to AEs,[5],0
same,"Paresthesia, all-causality",[5],1
same,"Paresthesia, treatment related",[5],0
same,"Procedural pain, all-causality",[5],2
same,"Procedural pain, treatment related",[5],0
same,"Abnormal dreams, all-causality",[6],0
same,"Dizziness, all-causality",[6],0
same,"Fatigue (MedDRA preferred term), all-causality",[6],1 (1)
same,"Fatigue, treatment related",[6],1 (1)
same,"Headache (MedDRA preferred term), all-causality",[6],1 (1)
same,"Headache, treatment related",[6],1 (1)
same,"Number of AEs, all-causality treatment-emergent",[6],11
same,"Number of AEs, treatment related",[6],7
same,"Number of subjects with AEs, all-causality",[6],6
same,"Number of subjects with AEs, treatment related",[6],5
same,Number of subjects with SAEs,[6],0
same,Number of subjects with discontinuation due to AEs,[6],0
same,Number of subjects with severe AEs,[6],0
same,Number of subjects with temporary discontinuation or dose reduction due to AEs,[6],0
same,"Back pain, all-causality",[7],0
same,"Fatigue (MedDRA preferred term), all-causality",[7],0
same,"Headache (MedDRA preferred term), all-causality",[7],1
same,"Headache, treatment related",[7],0
same,"Hepatic enzyme increased, all-causality",[7],1 (1)
same,"Hepatic enzyme increased, treatment related",[7],1 (1)
same,"Insomnia, all-causality",[7],0
same,"Musculoskeletal discomfort, all-causality",[7],2
same,"Musculoskeletal discomfort, treatment related",[7],0
same,"Number of AEs, all-causality treatment-emergent",[7],18
same,"Number of AEs, treatment related",[7],13
same,"Number of subjects with AEs, all-causality",[7],8
same,"Number of subjects with AEs, treatment related",[7],7
same,Number of subjects with SAEs,[7],0
same,Number of subjects with discontinuation due to AEs,[7],1 (1)
same,"Number of subjects with discontinuation due to AEs, treatment related",[7],1 (1)
same,Number of subjects with severe AEs,[7],0
same,Number of subjects with temporary discontinuation or dose reduction due to AEs,[7],0
same,"Paresthesia, all-causality",[7],1 (1)
same,"Paresthesia, treatment related",[7],1 (1)
same,"Procedural pain, all-causality",[7],0
same,"Rash leading to discontinuation, one subject","275 mg QD, 6 h post-dose on Day 11, deemed treatment related",moderate maculopapular rash
same,"AST elevation, one subject","275 mg QD, Day 14, after discontinuation on Day 11",1.15 x ULN
same,"Fatigue (MedDRA preferred term), all-causality",[8],0
same,"Headache (MedDRA preferred term), all-causality",[8],0
same,"Number of AEs, all-causality treatment-emergent",[8],1
same,"Number of AEs, treatment related",[8],0
same,"Number of subjects with AEs, all-causality",[8],1
same,"Number of subjects with AEs, treatment related",[8],0
same,Number of subjects with SAEs,[8],0
same,Number of subjects with discontinuation due to AEs,[8],0
same,Number of subjects with severe AEs,[8],0
same,Number of subjects with temporary discontinuation or dose reduction due to AEs,[8],0
same,"Fatigue (MedDRA preferred term), all-causality",[9],0
same,"Headache (MedDRA preferred term), all-causality",[9],0
same,"Number of AEs, all-causality treatment-emergent",[9],0
same,"Number of subjects with AEs, all-causality",[9],0
same,Number of subjects with SAEs,[9],0
same,Number of subjects with discontinuation due to AEs,[9],0
same,Number of subjects with severe AEs,[9],0
same,Number of subjects with temporary discontinuation or dose reduction due to AEs,[9],0
same,"Fatigue (MedDRA preferred term), all-causality",[10],0
same,"Headache (MedDRA preferred term), all-causality",[10],0
same,"Number of AEs, all-causality treatment-emergent",[10],0
same,"Number of subjects with AEs, all-causality",[10],0
same,Number of subjects with SAEs,[10],0
same,Number of subjects with discontinuation due to AEs,[10],0
same,Number of subjects with severe AEs,[10],0
same,Number of subjects with temporary discontinuation or dose reduction due to AEs,[10],0
same,"Fatigue (MedDRA preferred term), all-causality",[11],0
same,"Headache (MedDRA preferred term), all-causality",[11],0
same,"Number of AEs, all-causality treatment-emergent",[11],0
same,"Number of subjects with AEs, all-causality",[11],0
same,Number of subjects with SAEs,[11],0
same,Number of subjects with discontinuation due to AEs,[11],0
same,Number of subjects with severe AEs,[11],0
same,Number of subjects with temporary discontinuation or dose reduction due to AEs,[11],0
same,"Fatigue (MedDRA preferred term), all-causality",[12],1 (1)
same,"Fatigue, treatment related",[12],1 (1)
same,"Headache (MedDRA preferred term), all-causality",[12],0
same,"Number of AEs, all-causality treatment-emergent",[12],7
same,"Number of AEs, treatment related",[12],4
same,"Number of subjects with AEs, all-causality",[12],4 (4)
same,"Number of subjects with AEs, treatment related",[12],4 (4)
same,Number of subjects with SAEs,[12],0
same,Number of subjects with discontinuation due to AEs,[12],0
same,Number of subjects with severe AEs,[12],0
same,Number of subjects with temporary discontinuation or dose reduction due to AEs,[12],0
same,"Fatigue (MedDRA preferred term), all-causality",[13],2 (2)
same,"Fatigue, treatment related",[13],2 (2)
same,"Headache (MedDRA preferred term), all-causality",[13],0
same,"Number of AEs, all-causality treatment-emergent",[13],5
same,"Number of AEs, treatment related",[13],3
same,"Number of subjects with AEs, all-causality",[13],3 (3)
same,"Number of subjects with AEs, treatment related",[13],3 (3)
same,Number of subjects with SAEs,[13],0
same,Number of subjects with discontinuation due to AEs,[13],0
same,Number of subjects with severe AEs,[13],0
same,Number of subjects with temporary discontinuation or dose reduction due to AEs,[13],0
same,"Fatigue (MedDRA preferred term), all-causality",[14],0
same,"Headache (MedDRA preferred term), all-causality",[14],1 (1)
same,"Headache, treatment related",[14],1 (1)
same,"Number of AEs, all-causality treatment-emergent",[14],5 (5)
same,"Number of AEs, treatment related",[14],5 (5)
same,"Number of subjects with AEs, all-causality",[14],2 (2)
same,"Number of subjects with AEs, treatment related",[14],2 (2)
same,Number of subjects with SAEs,[14],0
same,Number of subjects with discontinuation due to AEs,[14],0
same,Number of subjects with severe AEs,[14],0
same,Number of subjects with temporary discontinuation or dose reduction due to AEs,[14],0
same,"Fatigue (MedDRA preferred term), all-causality",[15],0
same,"Headache (MedDRA preferred term), all-causality",[15],2 (2)
same,"Headache, treatment related",[15],2 (2)
same,"Number of AEs, all-causality treatment-emergent",[15],10
same,"Number of AEs, treatment related",[15],6
same,"Number of subjects with AEs, all-causality",[15],6
same,"Number of subjects with AEs, treatment related",[15],3
same,Number of subjects with SAEs,[15],0
same,Number of subjects with discontinuation due to AEs,[15],0
same,Number of subjects with severe AEs,[15],0
same,Number of subjects with temporary discontinuation or dose reduction due to AEs,[15],0
same,Findings in ECGs or vital signs,studies B8271001 and B8271004,no clinically meaningful findings
same,SAEs or deaths,[16],no SAEs or deaths were reported
same,Severity of TEAEs,[16],mild to moderate
